Measured values published in patent publication US20230381321A1, “CAMPTOTHECIN CONJUGATES” (priority 2022, published 2023).
Like-named read-outs stand apart in the source and are kept apart here.

Experiments:
Type in all cases: cell-based
[1] = tested on: pancreatic cancer cells (BxPC3); experiment: In vitro potency (CellTiter-Glo, 96 h) on BxPC3; conditions: Homo sapiens, BXPC-3, 96 h, read-out: BxPC3 IC50
Description: (§1) In vitro potency was assessed on multiple cancer cell lines. All cell lines were authenticated by STR profiling at IDEXX Bioresearch and cultured for no more than 2 months after resuscitation. Cells cultured in log-phase growth were seeded for 24 hours in 96-well plates containing […] RPMI 1640 supplemented with 20% FBS. Serial dilutions of antibody-drug conjugates in cell culture media were prepared at 4x working concentrations, and 50 μL of each dilution was added to the 96-well plates. Following addition of test articles, cells were incubated with test articles for 4 days at […]. After 96 hours, growth inhibition was assessed by CellTiterGlo® (Promega, Madison, WI) and luminescence was measured on a plate reader.
(§2) Cell viability was determined by CellTiter-Glo staining after 96h exposure to ADC. ND=Not Determined. In the following tables, “Ex_” refers to a drug linker number. For example, “Ag4-Ex_4a” refers to a conjugate of an Ag4 antibody with drug linker 4a.

[2] = tested on: acute myeloid leukemia cells (MOLM-13); experiment: In vitro potency (CellTiter-Glo, 96 h) on MOLM-13; conditions: Homo sapiens, MOLM-13, 96 h, read-out: MOLM-13 IC50
Description: as §1, §2

[3] = tested on: breast cancer cells (MDA-MB-231); experiment: In vitro potency (CellTiter-Glo, 96 h) on MDA-MB-231; conditions: Homo sapiens, MDA-MB-231, 96 h, read-out: MDAMB 231 IC50
Description: as §1, §2

[4] = In vitro potency (CellTiter-Glo, 96 h) on Ls174T; conditions: Homo sapiens, LS174T, read-out: Ls174T IC50
Description: as §1, §2

[5] = tested on: renal carcinoma cells (786-O); experiment: In vitro potency (CellTiter-Glo, 96 h) on 786-O; conditions: Homo sapiens, 786-0, 96 h, read-out: 786-O IC50
Description: as §1, §2

[6] = tested on: B-lymphocyte cancer cells (SU-DHL4); experiment: In vitro potency (CellTiter-Glo, 96 h) on SU-DHL4; conditions: Homo sapiens, SU-DHL-4, 96 h, read-out: SU-DHL-4 IC50
Description: as §1, §2

[7] = tested on: anaplastic large cell lymphoma cells (Karpas299); experiment: In vitro potency (CellTiter-Glo, 96 h) on Karpas299; conditions: Homo sapiens, KARPAS-299, 96 h, read-out: Karpas299 IC50
Description: as §1, §2

[8] = tested on: anaplastic large cell lymphoma cells (DELBVR); experiment: In vitro potency (CellTiter-Glo, 96 h) on DELBVR; conditions: 96 h, read-out: DELBVR IC50
Description: as §1, §2

[9] = tested on: anaplastic large cell lymphoma cells (DEL); experiment: In vitro potency (CellTiter-Glo, 96 h) on DEL; conditions: 96 h, read-out: DEL IC50
Description: as §1, §2

[10] = tested on: Hodgkin's lymphoma cells (L540cy); experiment: In vitro potency (CellTiter-Glo, 96 h) on L540cy; conditions: L540cy, 96 h, read-out: L540cy IC50
Description: as §1, §2

[11] = CPT free drugs, CellTiter-Glo after 96 h exposure

SMILES | IC50 [1, 11] | IC50 [2, 11] | IC50 [3, 11] | IC50 [4, 11] | IC50 [5, 11] | IC50 [6, 11] | IC50 [7, 11] | IC50 [8, 11] | IC50 [9, 11] | IC50 [10, 11] | IC50 [1] | IC50 [2] | IC50 [3] | IC50 ([4]; 96 h) | IC50 [5] | IC50 [6] | IC50 [7] | IC50 [8] | IC50 [9] | IC50 [10]
CC[C@@]1(O)C(=O)OCc2c1cc1n(c2=O)Cc2c-1nc1cc(Br)c(OC)c(F)c1c2CN [Compound 2ah] | 0.199 µM | 0.125 µM | 0.149 µM | 0.152 µM | 0.108 µM | 0.029 µM | 0.065 µM | 0.011 µM | 0.012 µM | 0.054 µM | – | – | – | – | – | – | – | – | – | –
CC[C@@]1(O)C(=O)OCc2c1cc1n(c2=O)Cc2c-1nc1cc3c(cc1c2CNCC(O)CN1CCOCC1)OCO3 (stereo partly shown) [Compound 7i] | – | – | – | – | – | – | – | – | – | – | 0.057 µM | 0.183 µM | 0.183 µM | 0.11 µM | 0.118 µM | 0.032 µM | 0.084 µM | 0.017 µM | 0.009 µM | 0.048 µM
CC[C@@]1(O)C(=O)OCc2c1cc1n(c2=O)Cc2c-1nc1cc(F)c(OC)c(Br)c1c2CN [Compound 2ad] | 0.022 µM | 0.005 µM | 0.015 µM | 0.017 µM | 0.009 µM | 0.004 µM | 0.007 µM | 0.001 µM | 0.001 µM | 0.004 µM | – | – | – | – | – | – | – | – | – | –
CC[C@@]1(O)C(=O)OCc2c1cc1n(c2=O)Cc2c-1nc1cc3c(cc1c2CN1CCN(CCN)CC1)OCO3 [Compound 8c] | – | – | – | – | – | – | – | – | – | – | 0.014 µM | 0.069 µM | 0.057 µM | 0.032 µM | 0.027 µM | 0.007 µM | 0.028 µM | 0.004 µM | 0.003 µM | 0.014 µM
CC[C@@]1(O)C(=O)OCc2c1cc1n(c2=O)Cc2c-1nc1cc3c(cc1c2CNCCCN1CCN(C)CC1)OCO3 [Compound 7h] | – | – | – | – | – | – | – | – | – | – | 0.043 µM | 0.093 µM | 0.067 µM | 0.04 µM | 0.044 µM | 0.021 µM | 0.057 µM | 0.006 µM | 0.005 µM | 0.023 µM
CC[C@@]1(O)C(=O)OCc2c1cc1n(c2=O)Cc2c-1nc1cc3c(cc1c2CNC(=O)CN)CCO3 [Compound 13] | – | – | – | – | – | – | – | – | – | – | 0.094 µM | 0.088 µM | 0.177 µM | 0.195 µM | 0.139 µM | 0.018 µM | 0.126 µM | 0.021 µM | 0.008 µM | 0.045 µM
CC[C@@]1(O)C(=O)OCc2c1cc1n(c2=O)Cc2c-1nc1cc3c(cc1c2CNC[C@H](O)CN1CCCCC1)OCO3 [Compound 7aa] | – | – | – | – | – | – | – | – | – | – | 0.066 µM | 0.069 µM | 0.228 µM | 0.188 µM | 0.131 µM | 0.019 µM | 0.063 µM | 0.019 µM | 0.017 µM | 0.051 µM
C/C=C/c1c(C)c(F)cc2nc3c(c(CN)c12)Cn1c-3cc2c(c1=O)COC(=O)[C@]2(O)CC [Compound 2aj] | 0.003 µM | 0.001 µM | 0.005 µM | 0.005 µM | 0.002 µM | 0.001 µM | 0.002 µM | 0.0003 µM | 0.0003 µM | 0.001 µM | – | – | – | – | – | – | – | – | – | –
CC[C@@]1(O)C(=O)OCc2c1cc1n(c2=O)Cc2c-1nc1cc3c(cc1c2CNC[C@H](O)CO)OCO3 [Compound 7n] | – | – | – | – | – | – | – | – | – | – | 0.047 µM | 0.137 µM | 0.096 µM | 0.039 µM | 0.066 µM | 0.021 µM | 0.057 µM | 0.006 µM | 0.005 µM | 0.023 µM
CC[C@@]1(O)C(=O)OCc2c1cc1n(c2=O)Cc2c-1nc1cc3c(cc1c2CNC(C)=O)OCO3 [Compound 12b] | – | – | – | – | – | – | – | – | – | – | 0.011 µM | 0.003 µM | 0.028 µM | 0.022 µM | 0.012 µM | 0.001 µM | 0.008 µM | 0.001 µM | – | 0.004 µM
CC[C@@]1(O)C(=O)OCc2c1cc1n(c2=O)Cc2c-1nc1cc3c(cc1c2CN)COC3 [Compound 2ak] | – | – | – | – | – | – | – | – | – | – | – | 0.129 µM | – | – | – | – | – | – | – | –
